Data: patent US8461174B2, “Treatment for cutaneous metastases” (3M Innovative Properties Company, priority 2004, dated 2013)

Legend:
[1] = tested on: cutaneous metastasis of Her2/neu-positive breast cancer (invasive lobular tumor cells); test: Topical treatment of cutaneous metastasis of breast cancer in a patient (Example 1); assay type: in vivo, human; details: person one
Protocol: (§1) The IRM compound used in the examples is 1-(2-methylpropyl)-1H-imidazo[4,5-c]quinolin-4-amine, formulated as a 5% cream available under the tradename ALDARA (3M Co., St. Paul, Minn.).
person one with breast cancer (UICC stage pT1c, pN1b1, M0, G2, estrogen-positive, progesterone-positive) developed an axillary recurrence and osteolytic metastases (L2-4) despite axillary dissection and neoadjuvant and adjuvant chemotherapy. The recurrent tumor and metastases were treated with radiation. Nine months later, the breast cancer recurred locally (rpT1c, M1, G2, estrogen-negative, progesterone-negative, Her2/neu-positive) and was treated with trastuzumab and percutaneous radiation. An inflammatory erythema occurred on the upper back (FIG. 1A). On histology, invasive lobular tumor cells (keratin-positive, Her2/neu-positive, ICAM-1-positive) were present (FIGS. 1B-1E.
(§2) 1-(2-methylpropyl)-1H-imidazo[4,5-c]quinolin-4-amine was administered topically five times per week for six months.

[2] = tested on: cutaneous metastasis of invasive ductal carcinoma (Her2/neu-negative); test: Topical treatment of cutaneous metastasis of invasive ductal carcinoma in a patient (Example 2); assay type: in vivo, human; details: person two; 5% cream (ALDARA) topically five times per week for six months
Protocol: as §1
person two with invasive ductal carcinoma (UICC stage T2, pN1, B2, cM0) that was estrogen-negative, progesterone-negative, and Her2/neu-negative was treated by mastectomy and adjuvant chemotherapy. Infraclavicular and supraclavicular recurrences were treated with γ- and telecobalt radiation, intrarterial and intravenous chemotherapy. A diffuse cutaneous lesion occurred on the scapula that, upon histological examination, contained an infiltrative ductal growth pattern (FIG. 1I).
as §2

With `CC(C)Cn1cnc2c(N)nc3ccccc3c21` [1-(2-methylpropyl)-1H-imidazo[4,5-c]quinolin-4-amine] the “skin lesions upon gross examination or histological examination after the treatment period” value ([1]; 5% cream (ALDARA) topically five times per week for six months) was “no skin lesions were detected”, the “time the patient has remained free of cutaneous metastasis” value ([1]; after topical treatment five times per week for six months) was “more than ten months” and the “skin biopsy of an affected area after the treatment period” value [2] was “free of carcinoma cells”.
